{
  "source": "patent US20110311484A1",
  "about": "“STRAINS OF […] LEUKEMIA-RELATED VIRUS AND METHODS FOR DETECTION THEREOF” (Whittemore Peterson Institute for Neuro-Immune Disease, priority 2010, published 2011)",
  "tested_on": "XMRV",
  "assay": "XMRV Env expression in PHA/IL-2 activated PBMC cultures, staining with SFFV env moAb",
  "assay_type": "cell-based",
  "settings": "PBMCs of XMRV-infected individuals, PHA/IL-2 activated for three days; inhibitor (50 nM AZT, FIG. 3) added prior to activation",
  "experimental": "XMRV RNA could not always be detected in the PBMCs of subjects from which infectious virus had been isolated from plasma. […] We have observed that culturing these PBMCs under conditions that induce activation of T cells increases the frequency of XMRV detected by RT-PCR in the cells maintained in culture. […] To biologically increase the level of XMRV and increase the probability that XMRV sequences could be detected by PCR, PBMCs were cultured under conditions that activated T cells for 7-10 days, the RNA isolated, and nested RT-PCR analysis performed as described above.",
  "data": [
    {"smiles": "Cc1cn([C@H]2C[C@H](N=[N+]=[N-])[C@@H](CO)O2)c(=O)[nH]c1=O", "note": "[reverse transcriptase inhibitor, zidovudine]", "values": [
      {"measurement": "XMRV expression, as measured by cell surface expression of Env", "result": "prevents the increase XMRV expression"}
    ]}
  ]
}
